The source of these data is PMC11879040, “Advancing systemic toxicity risk assessment: Evaluation of a NAM-based toolbox approach” (Toxicological Sciences, 2024).

The structures appear in SMILES notation. Like-named read-outs stand apart in the source and are kept apart here. Some results are limits rather than exact numbers.

In one series the test system is MCF7 cells. The series can be described thus: High-throughput transcriptomics (HTTr, TempO-Seq), MCF7, 24 h. Format: cell-based, human. The note with it: MCF-7; for pod_httr_bifrost PoD: HTTr BIFROST PoD; for podl_path_minbmd PoD: HTTr minimum pathway BMD(L). As to the method:
(§1) HepG2, HepaRG, and MCF7 cells were treated with each compound for 24 h across a dose range of 7 concentrations and lysed using TempO-Seq lysis buffer (BioSpyder Technologies, proprietary kit, see [Middleton et al. 2022] for method details). Sequencing was performed using TempO-Seq (BioClavis) version 2 of the human whole transcriptome panel and analyzed as described previously in Middleton et al.

The subject of series [1] is Sodium channel protein type 5 subunit alpha (site 2), SCN5A (r). Format: binding, rat.
For series [2], the target named is T1, Progesterone receptor, PGR (h) (Homo sapiens, UniProt P06401).
T1 sequence (P06401 1-933): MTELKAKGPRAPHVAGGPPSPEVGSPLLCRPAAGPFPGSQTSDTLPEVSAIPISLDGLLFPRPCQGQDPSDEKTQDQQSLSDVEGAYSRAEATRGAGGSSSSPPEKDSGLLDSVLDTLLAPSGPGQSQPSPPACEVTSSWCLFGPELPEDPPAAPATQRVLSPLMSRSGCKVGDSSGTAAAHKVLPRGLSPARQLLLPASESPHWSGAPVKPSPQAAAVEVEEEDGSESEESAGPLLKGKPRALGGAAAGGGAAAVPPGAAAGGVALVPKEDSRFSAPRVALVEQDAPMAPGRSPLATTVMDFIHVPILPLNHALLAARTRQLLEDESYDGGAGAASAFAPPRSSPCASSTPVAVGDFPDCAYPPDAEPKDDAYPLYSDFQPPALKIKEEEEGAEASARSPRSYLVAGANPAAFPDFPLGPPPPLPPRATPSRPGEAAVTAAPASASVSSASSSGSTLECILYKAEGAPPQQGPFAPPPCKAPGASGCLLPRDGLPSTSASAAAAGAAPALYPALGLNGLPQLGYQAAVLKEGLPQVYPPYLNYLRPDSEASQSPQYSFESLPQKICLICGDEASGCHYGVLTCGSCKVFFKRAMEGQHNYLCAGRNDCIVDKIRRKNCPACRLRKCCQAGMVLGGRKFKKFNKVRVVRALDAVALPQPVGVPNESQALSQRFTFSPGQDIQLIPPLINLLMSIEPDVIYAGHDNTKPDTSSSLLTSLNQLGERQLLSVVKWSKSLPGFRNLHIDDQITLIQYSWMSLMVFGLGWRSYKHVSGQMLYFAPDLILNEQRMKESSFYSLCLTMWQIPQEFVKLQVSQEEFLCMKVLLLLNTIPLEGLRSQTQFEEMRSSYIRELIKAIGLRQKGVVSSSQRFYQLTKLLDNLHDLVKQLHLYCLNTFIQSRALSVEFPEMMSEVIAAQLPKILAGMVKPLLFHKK
The series can be described thus: biochemical. Format: biochemical.

Series [3] has as its target T2, Adenosine receptor A2a, ADORA2A (h) (Homo sapiens, UniProt P29274).
T2 construct: purchased Eurofins Cerep (SafetyScreen44-based IPP panel)
The series can be described thus: IPP ADORA2A binding (agonist radioligand). The note with it: control NECA.

For series [4], the system named is HepG2 cells. The series can be described thus: Cell stress panel (CSP), 24 h, 8 concentrations, BIFROST global PoD. The note with it: HepG2; cell stress panel PoD. Format: cell-based. As to the method: Compounds were tested using the previously developed cell stress panel ([Hatherell et al. 2020]) and the expanded biomarker panel outlined in Middleton et al. HepG2 cells were treated with all compounds for 24 h across 8 concentrations prior to biomarker analysis. The same plate layout and number of replicates (3 biological and 2 technical) were used as previously for each assay within the panel.

Series [5] deals with Thyroid hormone receptor alpha, THRA (h). The series can be described thus: IPP THRA coactivator recruitment (agonist). The note with it: agonist, T3. Format: biochemical, human.
The subject of a further series is HepaRG cells. The series can be described thus: High-throughput transcriptomics (HTTr, TempO-Seq), HepaRG, 24 h. Format: cell-based, human. To be noted: HepaRG; for pod_httr_bifrost PoD: HTTr BIFROST PoD; for podl_path_minbmd PoD: HTTr minimum pathway BMD(L). As to the method:
as §1

The test system of another series is Tubulin (r). The series can be described thus: IPP Tubulin binding. More on the design: species or system rat.
Series [6] concerns Potassium Voltage-Gated Channel Kv non-selective, KCNQ1 (r). The series can be described thus: IPP KCNQ1 binding (antagonist radioligand). Also on record: species or system rat.
Series [7] relates to Gamma-aminobutyric acid receptor subunit alpha-1 BZD site, GABRA1A (r). Format: binding, rat.
The conditions of series [8]: human.
In series [9] the test system is HepG2 cells. The series can be described thus: High-throughput transcriptomics (HTTr, TempO-Seq), HepG2, 24 h. Format: cell-based, human. To be noted: HepG2; for pod_httr_bifrost PoD: HTTr BIFROST PoD; for podl_path_minbmd PoD: HTTr minimum pathway BMD(L). The procedure: as §1
For another series, the system named is mouse. The note with it: cited from earlier work; for PoD (NOAEL): mouse.
For series [10], the system named is Glutamate receptor ionotropic NMDA 1 non-selective, GRIN1 (r).
Series [11] concerns the target T3, Constitutive androstane receptor CAR, NR1I3 (h) (Homo sapiens, UniProt Q14994).
T3 sequence (Q14994 1-352): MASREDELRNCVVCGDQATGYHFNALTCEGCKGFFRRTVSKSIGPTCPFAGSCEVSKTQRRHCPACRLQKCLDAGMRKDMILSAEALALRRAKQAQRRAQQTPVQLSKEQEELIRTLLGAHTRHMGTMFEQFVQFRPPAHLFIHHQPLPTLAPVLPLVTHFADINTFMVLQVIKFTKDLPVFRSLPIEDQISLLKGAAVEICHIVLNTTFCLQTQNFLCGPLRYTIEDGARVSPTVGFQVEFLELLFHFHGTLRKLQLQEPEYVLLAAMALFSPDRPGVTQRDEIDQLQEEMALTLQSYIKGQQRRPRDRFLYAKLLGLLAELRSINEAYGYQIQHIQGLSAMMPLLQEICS
Format: biochemical.

Series [12] concerns the target T4, Pregnane X receptor PXR, NR1I2 (h) (Homo sapiens, UniProt O75469).
T4 sequence (O75469 1-434): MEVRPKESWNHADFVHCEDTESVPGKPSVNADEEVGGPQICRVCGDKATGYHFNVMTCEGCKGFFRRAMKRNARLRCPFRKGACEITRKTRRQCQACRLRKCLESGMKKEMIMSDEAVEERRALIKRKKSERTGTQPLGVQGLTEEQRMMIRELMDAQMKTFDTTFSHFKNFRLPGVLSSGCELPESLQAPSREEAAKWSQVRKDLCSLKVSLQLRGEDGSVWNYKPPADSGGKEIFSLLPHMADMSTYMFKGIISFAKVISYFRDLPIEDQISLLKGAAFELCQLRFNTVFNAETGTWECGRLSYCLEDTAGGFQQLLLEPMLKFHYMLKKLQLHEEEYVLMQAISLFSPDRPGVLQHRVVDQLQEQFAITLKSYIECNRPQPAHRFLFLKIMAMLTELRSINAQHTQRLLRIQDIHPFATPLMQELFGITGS

Series [13] addresses Potassium voltage-gated channel subfamily H member 2 hERG, KCNH2 (h) (Homo sapiens, UniProt Q12809). To be noted: 100 uM; [3H] Dofetilide; control Terfenadine.
The conditions of series [14]: 12 healthy female, cited from earlier work.
For series [15], the target named is Voltage-dependent L-type Ca2+ channel (dihydropyridine site), CACNA1C (r) (Rattus norvegicus, UniProt P22002). Format: binding.
Setting [16] is: 100 uM, * denotes assay interference (2-Amino-6-chloro-4-nitrophenol, HC Red 3).
Where [17] appears, read: 100 uM, ligand/control Colchicine.
The mark [18] stands for this setting: IPP screening at 100 uM, control CGS 19755.
Where [19] appears, read: Oral 50 mg (IR: Capsule), fasted, calibration, ref Huttner et al. 2018.
[20] abbreviates: human, Oral 100 mg, Fasted, validation, ref Huttner et al., Journal of Antimicrobial Chemotherapy (2018) 74(6): 1656-1661.

The EC50 is the midpoint of the concentration-response curve. The low end stands for higher potency in that assay, the high end for lower potency in that assay.

T2 sequence (P29274 whole entry): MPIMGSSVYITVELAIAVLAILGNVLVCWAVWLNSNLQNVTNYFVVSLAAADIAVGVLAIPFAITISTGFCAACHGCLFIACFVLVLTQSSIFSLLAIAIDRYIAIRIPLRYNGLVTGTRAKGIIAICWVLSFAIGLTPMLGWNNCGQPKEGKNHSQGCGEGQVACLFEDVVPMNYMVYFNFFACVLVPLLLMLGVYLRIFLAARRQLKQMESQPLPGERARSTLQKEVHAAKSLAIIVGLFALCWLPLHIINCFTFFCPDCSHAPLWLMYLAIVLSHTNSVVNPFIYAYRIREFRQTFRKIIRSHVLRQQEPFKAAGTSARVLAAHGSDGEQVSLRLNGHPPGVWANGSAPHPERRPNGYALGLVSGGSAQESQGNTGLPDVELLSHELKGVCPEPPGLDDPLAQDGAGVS
Potassium voltage-gated channel subfamily H member 2 hERG, KCNH2 (h), sequence (Q12809 whole entry): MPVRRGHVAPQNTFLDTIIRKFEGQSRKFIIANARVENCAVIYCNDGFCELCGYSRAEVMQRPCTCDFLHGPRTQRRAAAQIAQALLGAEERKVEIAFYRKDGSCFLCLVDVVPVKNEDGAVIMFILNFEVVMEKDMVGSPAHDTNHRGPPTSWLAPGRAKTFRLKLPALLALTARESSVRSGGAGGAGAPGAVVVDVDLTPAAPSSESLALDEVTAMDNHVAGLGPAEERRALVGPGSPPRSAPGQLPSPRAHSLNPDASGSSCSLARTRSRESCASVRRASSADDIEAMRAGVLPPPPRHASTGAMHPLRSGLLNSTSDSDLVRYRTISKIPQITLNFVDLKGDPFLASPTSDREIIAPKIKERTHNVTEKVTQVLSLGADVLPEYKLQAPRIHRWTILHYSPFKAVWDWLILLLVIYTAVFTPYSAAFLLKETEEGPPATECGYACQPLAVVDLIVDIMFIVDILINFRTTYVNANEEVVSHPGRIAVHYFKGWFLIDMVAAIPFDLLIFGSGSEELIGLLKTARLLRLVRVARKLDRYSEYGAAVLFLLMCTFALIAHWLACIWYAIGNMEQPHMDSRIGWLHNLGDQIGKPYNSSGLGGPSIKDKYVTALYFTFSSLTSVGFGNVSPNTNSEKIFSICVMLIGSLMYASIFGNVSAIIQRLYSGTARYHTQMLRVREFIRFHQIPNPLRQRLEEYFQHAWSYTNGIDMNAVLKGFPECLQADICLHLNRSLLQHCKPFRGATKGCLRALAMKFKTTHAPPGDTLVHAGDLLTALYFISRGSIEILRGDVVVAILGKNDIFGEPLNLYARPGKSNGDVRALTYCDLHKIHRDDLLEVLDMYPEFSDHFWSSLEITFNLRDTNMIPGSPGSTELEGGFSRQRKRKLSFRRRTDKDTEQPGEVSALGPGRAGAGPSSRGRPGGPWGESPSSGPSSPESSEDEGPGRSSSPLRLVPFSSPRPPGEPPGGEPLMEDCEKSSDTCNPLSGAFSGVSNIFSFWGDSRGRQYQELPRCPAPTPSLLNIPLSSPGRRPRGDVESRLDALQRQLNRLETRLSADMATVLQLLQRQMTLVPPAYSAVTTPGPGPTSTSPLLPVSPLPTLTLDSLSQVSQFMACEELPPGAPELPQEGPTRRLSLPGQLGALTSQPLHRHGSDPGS
Voltage-dependent L-type Ca2+ channel (dihydropyridine site), CACNA1C (r), sequence (P22002 whole entry): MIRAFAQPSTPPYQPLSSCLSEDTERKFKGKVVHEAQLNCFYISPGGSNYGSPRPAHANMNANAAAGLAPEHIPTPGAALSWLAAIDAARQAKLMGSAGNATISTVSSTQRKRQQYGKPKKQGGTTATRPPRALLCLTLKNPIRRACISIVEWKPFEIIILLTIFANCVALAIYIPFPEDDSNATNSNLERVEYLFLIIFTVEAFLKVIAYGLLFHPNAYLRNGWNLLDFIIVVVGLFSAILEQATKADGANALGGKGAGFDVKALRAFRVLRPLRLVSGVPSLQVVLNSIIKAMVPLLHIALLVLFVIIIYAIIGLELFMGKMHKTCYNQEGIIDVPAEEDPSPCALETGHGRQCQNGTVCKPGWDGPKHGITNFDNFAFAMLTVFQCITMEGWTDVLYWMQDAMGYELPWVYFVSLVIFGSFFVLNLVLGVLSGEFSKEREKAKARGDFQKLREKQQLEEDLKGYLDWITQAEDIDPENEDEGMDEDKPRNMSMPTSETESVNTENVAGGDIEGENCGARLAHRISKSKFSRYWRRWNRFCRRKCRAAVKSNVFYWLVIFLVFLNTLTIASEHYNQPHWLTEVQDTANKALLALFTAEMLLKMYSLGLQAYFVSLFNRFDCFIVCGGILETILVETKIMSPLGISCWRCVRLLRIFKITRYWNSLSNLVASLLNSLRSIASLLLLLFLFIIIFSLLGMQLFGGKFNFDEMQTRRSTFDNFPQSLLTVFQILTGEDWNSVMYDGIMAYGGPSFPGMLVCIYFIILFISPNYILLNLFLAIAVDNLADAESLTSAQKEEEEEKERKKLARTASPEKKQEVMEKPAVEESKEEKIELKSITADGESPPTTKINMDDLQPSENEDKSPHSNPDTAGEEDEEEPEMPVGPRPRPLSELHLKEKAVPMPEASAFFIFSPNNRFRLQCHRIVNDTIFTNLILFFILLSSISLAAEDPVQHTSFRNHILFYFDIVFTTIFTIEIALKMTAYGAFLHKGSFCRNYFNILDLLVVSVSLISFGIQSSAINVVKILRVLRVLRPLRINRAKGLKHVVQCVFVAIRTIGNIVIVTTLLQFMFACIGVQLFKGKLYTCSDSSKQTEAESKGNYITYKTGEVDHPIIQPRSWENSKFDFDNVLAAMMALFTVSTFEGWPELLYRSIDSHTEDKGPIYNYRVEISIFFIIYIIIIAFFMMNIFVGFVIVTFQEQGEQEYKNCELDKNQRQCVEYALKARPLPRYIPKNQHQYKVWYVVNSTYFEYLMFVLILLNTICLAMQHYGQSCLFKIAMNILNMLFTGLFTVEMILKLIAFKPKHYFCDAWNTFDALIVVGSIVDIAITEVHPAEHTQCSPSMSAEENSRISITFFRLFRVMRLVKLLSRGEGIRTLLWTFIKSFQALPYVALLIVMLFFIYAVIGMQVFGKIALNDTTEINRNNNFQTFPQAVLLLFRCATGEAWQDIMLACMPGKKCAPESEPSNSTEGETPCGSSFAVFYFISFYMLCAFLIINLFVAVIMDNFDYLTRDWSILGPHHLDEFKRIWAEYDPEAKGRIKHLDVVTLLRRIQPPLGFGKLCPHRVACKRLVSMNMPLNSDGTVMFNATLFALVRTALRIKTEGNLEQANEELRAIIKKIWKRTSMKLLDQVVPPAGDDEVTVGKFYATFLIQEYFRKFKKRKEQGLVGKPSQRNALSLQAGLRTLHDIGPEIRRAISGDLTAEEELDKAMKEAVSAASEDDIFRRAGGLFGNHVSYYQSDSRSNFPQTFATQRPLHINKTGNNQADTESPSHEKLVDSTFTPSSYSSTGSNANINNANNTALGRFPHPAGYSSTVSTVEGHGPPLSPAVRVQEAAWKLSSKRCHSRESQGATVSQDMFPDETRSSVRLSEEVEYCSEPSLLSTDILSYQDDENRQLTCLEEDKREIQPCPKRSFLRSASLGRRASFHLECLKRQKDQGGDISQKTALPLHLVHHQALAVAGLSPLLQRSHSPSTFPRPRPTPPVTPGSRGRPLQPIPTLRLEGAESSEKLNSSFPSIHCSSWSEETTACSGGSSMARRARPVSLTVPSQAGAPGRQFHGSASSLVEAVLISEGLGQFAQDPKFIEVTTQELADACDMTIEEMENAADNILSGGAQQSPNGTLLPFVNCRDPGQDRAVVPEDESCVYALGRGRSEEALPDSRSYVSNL

Take `O=P1(N(CCCl)CCCl)NCCCO1` (centres unmarked) [Cyclophosphamide, 2-[Bis(2-chloroethyl)amino]-1,3,2lambda~5~-oxazaphosphinan-2-one]: the “pod_httr_bifrost PoD” value in the series with MCF7 cells stood at 0.08892 µM; in the series on HepaRG cells it was 7.071 µM; with HepG2 cells [9], 118.124 µM. Also, the “podl_path_minbmd PoD” value turned out to be 210.107 µM with MCF7 cells, 31.838 µM in the series on HepaRG cells and 783.625 µM in the series with HepG2 cells [9]. Besides, the Specific binding in series [1] was 12.4%; in series [3] (IPP screening at 100 uM), 15.0%; in [6], 17.5%; in series [7], 19.4%; in [10] (setting [18]), 6.8%. This compound also came in with an EC50 in series [2] of more than 300 µM. Further, the “pod_cell_stress PoD” value with HepG2 cells [4] worked out at 3.329 µM. Further, the “IPP screening %, Coactivator recruitment” value in series [5] (setting [16]) is -1.0%. Besides, the “IPP screening %, Specific binding” value in the series with Tubulin (r) (setting [17]) is -4.0%. In series [8], this compound had a risk of 1. Also, the “PoD (NOAEL)” value in the series with mouse (42 days, developmental neurotox study, ref ToxRefDB/Paul-Friedman et al. (2020)/regulatory opinions) is listed as 45 mg/kg bw/day.

Consider `Nc1ccc(NCCO)c([N+](=O)[O-])c1` [HC Red 3, 2-(4-Amino-2-nitroanilino)ethan-1-ol], for which the Specific binding in series [1] (IPP screening at 100 uM, control veratridine) is recorded as 38.7%; in series [3] (IPP screening at 100 uM) it was 18.0%; in series [6] (IPP screening at 100 uM, control α-dendrotoxin), -2.7%; in series [7] (IPP screening at 100 uM, control diazepam), 16.3%; in series [10] (setting [18]) it was 0.4%. Moreover, the “pod_cell_stress PoD” value in the series on HepG2 cells [4] was 1.583 µM. For the same compound, the “IPP Dose Response PoD: CAR antagonist effect” value in series [11] is “[29.7,46.9]”. In [12], the “IPP Dose Response PoD: PXR antagonist” value is “[4.11, 6.71]”. Also, the “IPP screening %, Coactivator recruitment” value in series [5] (setting [16]) is 628.0* %. In addition, the “IPP screening %, Specific binding” value with Tubulin (r) (setting [17]) is given as -13.0%; in [13], 16.3%. Moreover, the risk in series [8] worked out at 0. For the same compound, the “NOAEL before adjustment for 5 day dosing regimen” value with mouse (ref SCCS) was “NOAEL of 125 mkd adjusted for 5 day dosing regimen. 90 mkd used as critical PoD by SCCS”.

As to `O=C1CN(N=Cc2ccc([N+](=O)[O-])o2)C(=O)N1` [Nitrofurantoin, 1-{[(5-Nitrofuran-2-yl)methylidene]amino}imidazolidine-2,4-dione], the “pod_httr_bifrost PoD” value is 0.3553 µM with MCF7 cells, 0.1863 µM in the series on HepaRG cells and 0.5233 µM in the series on HepG2 cells [9]. Moreover, the “podl_path_minbmd PoD” value was found to be 7.519 µM in the series on MCF7 cells, 2.332 µM in the series with HepaRG cells and 2.98 µM in the series with HepG2 cells [9]. Moreover, the Specific binding is on record as 4.4% in [1]; 37.8% in series [3] (IPP screening at 10 uM); -14.6% in series [6] (IPP screening at 10 uM, control α-dendrotoxin); 7.2% in series [7]; -6.9% in series [15]; -2.8% in series [10]. For the same compound, the “pod_cell_stress PoD” value in the series on HepG2 cells [4] was 0.5175 µM. Further, the “Reported AUC0-t” value is 3040 to 6400 ng·h/mL in series [14] (setting [19]) and 940 to 10970 ng·h/mL in series [14] (setting [20]). For the same compound, the Reported cmax is 0.21 to 0.45 mg/L in [14] (setting [19]) and 0.22 to 1.26 mg/L in series [14] (setting [20]). In addition, the Reported tmax in series [14] (setting [19]) and in [14] (setting [20]) was 30 to 300 min in each case. Besides, the “IPP screening %, Coactivator recruitment” value in [5] (10 uM) is on record as 0.0%. Also, the “IPP screening %, Specific binding” value in the series with Tubulin (r) worked out at 7.0%. Also, the risk in [8] was found to be 1. In the series with mouse (in vivo), the “PoD (NOAEL)” value is given as 60 mg/kg bw/day.
